Measurements as given in patent US20240150356A1, “Pyrimidine amide compounds and use thereof” (ALPHALA CO., LTD., priority 2019, published 2024).

The compounds below were run on Hep3B cells (hepatocellular carcinoma cell line) (assay: In vitro MTS cell viability assay (NCI-60 methodology), Hep3B). Details: Homo sapiens, 48 h, Table 1, MTS, 2 days drug incubation, 50% reduction vs time zero, read-out: Hep3B LC50.
Assay type: cell-based
In short: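 Hep3B cells given five 2-fold dilutions of compound for 2 days, with viability by MTS measured at time zero and at end. LC50 is the concentration giving a 50% fall in viable cells relative to the start of treatment, per NCI-60 formula.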
Cn1ncc2c(NC(=O)c3ccc([N+](=O)[O-])s3)nc(-c3ccccc3OC(F)(F)F)nc21 [Compound 1-8, N-(1-methyl-6-(2-(trifluoromethoxy)phenyl)-1H-pyrazolo[3,4-d]pyrimidin-4-yl)-5-nitrothiophene-2-carboxamide] showed an LC50 of 2.53 µM.

Same assay, conditions: Homo sapiens, 48 h, Table 3, MTS, 2 days drug incubation, 50% reduction vs time zero, read-out: Hep3B LC50
Compound Cc1nn(C)c2c(NC(=O)c3ccc([N+](=O)[O-])s3)nc(-c3cccc(OC(F)(F)F)c3)nc12 [Compound 3-4, N-(1,3-dimethyl-5-(3-(trifluoromethoxy)phenyl)-1H-pyrazolo[4,3-d]pyrimidin-7-yl)-5-nitrothiophene-2-carboxamide] has an LC50 of 1.51 µM. With Cn1cc2nc(-c3ccc(C(C)(C)C)cc3)nc(NC(=O)c3ccc([N+](=O)[O-])s3)c2c1 [Compound 3-10, N-(2-(4-(tert-butyl)phenyl)4-methyl-6H-pyrrolo[3,4,d]pyrimidin-4-yl)-5-nitrothiophene-2-carboxamide] the LC50 was 10 µM.

Same assay, conditions: Homo sapiens, 48 h, Table 4, MTS, 2 days drug incubation, 50% reduction vs time zero, read-out: Hep3B LC50
In the case of Cc1csc2c(NC(=O)c3ccc([N+](=O)[O-])s3)nc(-c3ccc(N(C)C)cc3)nc12 [Compound 4-10, N-(2-(4-(dimethylamino)phenyl)-7-methylthieno[3,2-d]pyrimidin-4-yl)-5-nitrothiophene-2-carboxamide], the LC50 is reported as > 10 µM. Work on Cc1csc2c(NC(=O)c3ccc([N+](=O)[O-])s3)nc(-c3cccc(F)c3)nc12 [Compound 4-7, N-(2-(3-fluorophenyl)-7-methylthieno[3,2-d]pyrimidin-4-yl)-5-nitrothiophene-2-carboxamide] yielded an LC50 of 1.28 µM.

Same assay, conditions: Homo sapiens, 48 h, Table 5, MTS, 2 days drug incubation, 50% reduction vs time zero, read-out: Hep3B LC50
With CCOCCOCCOc1nc(NC(=O)c2ccc([N+](=O)[O-])s2)c2cnn(-c3ccccc3)c2n1 [Compound 5-10, N-(6-(2-(2-ethoxyethoxy)ethoxy)-1-phenyl-1H-pyrazolo[3,4-d]pyrimidin-4-yl)-5-nitrothiophene-2-carboxamide] the LC50 was > 5 µM. In the case of COCCOc1ccc(-c2nc(NC(=O)c3ccc([N+](=O)[O-])s3)c3cnn(-c4ccccc4)c3n2)cn1 [Compound 5-54, N-(6-(6(2-methoxyethoxy)pyridin-3-yl)-1-phenyl-1H-pyrazolo[3,4-d]pyrimidin-4-yl)-5-nitrothiophene-2-carboxamide], the LC50 is reported as 0.34 µM.

Same assay, conditions: Homo sapiens, 48 h, Table 6, MTS, 2 days drug incubation, 50% reduction vs time zero, read-out: Hep3B LC50
For COCCOc1ccc(-c2nc(NC(=O)c3ccc([N+](=O)[O-])s3)c3cnn(-c4ccc(F)cc4)c3n2)c(F)c1 [Compound 6-138, N-(6-(2-fluoro-4-(2-methoxyethoxy)phenyl)-1-(4-fluorophenyl)-1H-pyrazolo[3,4,d]pyrimidin-4-yl)-5-nitrothiophene-2-carboxamide], the LC50 was > 1.25 µM. O=C(Nc1nc(-c2ccc(OC(F)(F)F)cc2)nc2c1cnn2-c1ccc(F)cc1)c1ccc([N+](=O)[O-])s1 [Compound 6-123, N-(1-(4-fluorophenyl)-6-(4-(trifluoromethoxy)phenyl)-1H-pyrazolo[3,4d]pyrimidin-4-yl)-5-nitrothiophene-2-carboxamide] was tested, and the LC50 was 0.34 µM. In the case of Cc1ccn(-c2nc(NC(=O)c3ccc([N+](=O)[O-])s3)c3cnn(-c4ccc(Cl)cc4)c3n2)n1 [Compound 6-46, N-(1-(4-chlorophenyl)-6-(3-methyl-1H-pyrazol-1-yl)-1H-pyrazolo[3,4-d]pyrimidin-4-yl)-5-nitrothiophene-2-carboxamide], the LC50 is reported as 0.16 µM. COCCN(C)c1ccc(-c2nc(NC(=O)c3ccc([N+](=O)[O-])s3)c3cnn(-c4cccc(F)c4)c3n2)cn1 [Compound 6-93] was tested, and the LC50 was 0.4 µM. Compound O=C(Nc1nc(-c2ccc3c(c2)OCO3)nc2c1cnn2-c1ccc(Cl)cc1)c1ccc([N+](=O)[O-])s1 [Compound 6-50, N-(6-(benzo[d][1,3]dioxol-5-yl)-1(4-chlorophenyl)-1H-pyrazolo[3,4-d]pyrimidin-4-yl)-5-nitrothiophene-2-carboxamide] has an LC50 of 0.16 µM. O=C(Nc1nc(-c2ccc3c(c2)OCO3)nc2c1cnn2-c1cccc(F)c1)c1ccc([N+](=O)[O-])s1 [Compound 6-92, N-(6-(benzo[d][1,3]dioxol-5-yl)-1-(3-fluorophenyl)-1H-pyrazolo[3,4-d]pyrimidin-4-yl)-5-nitrothiophene-2-carboxamide] gave an LC50 of 0.45 µM. Work on CCOCCOc1ccc(-c2nc(NC(=O)c3ccc([N+](=O)[O-])s3)c3cnn(-c4ccc(C)cc4)c3n2)cn1 [Compound 6-13, N-(6-(6-(2-ethoxyethoxy)pyridin-3-yl)-1-(p-tolyl)-1H-pyrazolo[3,4-d]pyrimidin-4-yl)-5-nitrothiophene-2-carboxamide] yielded an LC50 of 0.51 µM. In the case of CC(C)(C)c1ccc(-n2ncc3c(NC(=O)c4ccc([N+](=O)[O-])s4)nc(OCC(F)(F)C(F)F)nc32)cc1 [Compound 6-59, N-(1-(4-(tert-butyl)phenyl)-6-(2,2,3,3-tetrafluoropropoxy)-1H-pyrazolo[3,4-d]pyrimidin-4-yl)-5-nitrothiophene-2-carboxamide], the LC50 is reported as 0.5 µM. Work on CC(C)(C)c1ccc(-n2ncc3c(NC(=O)c4ccc([N+](=O)[O-])s4)nc(-c4ccc(F)cc4)nc32)cc1 [Compound 6-81, N-(1-(4-(tert-butyl)phenyl)-6-(4-fluorophenyl)-1H-pyrazolo[3,4-d]pyrimidin-4-yl)-5-nitrothiophene-2-carboxamide] yielded an LC50 of 0.94 µM. With CC(C)(C)c1ccc(-n2ncc3c(NC(=O)c4ccc([N+](=O)[O-])s4)nc(N4CCC[C@H]4C(=O)O)nc32)cc1 [Compound 6-70, (1-(4-(tert-butyl)phenyl)-4-(5-nitrothiophene-2-carboxamido)-1H-pyrazolo[3,4-d]pyrimidin-6-yl)-L-proline] the LC50 was > 1.25 µM. For O=C(Nc1nc(-c2ccccc2F)nc2c1cnn2-c1ccc(F)cc1)c1ccc([N+](=O)[O-])s1 [Compound 6-113, N-(6-(2-fluorophenyl)-1-(4-fluorophenyl)-1H-pyrazolo[3,4-d]pyrimidin-4-yl)-5-nitrothiophene-2-carboxamide], the LC50 was 0.4 µM. CC(C)(C)c1ccc(-c2nc(NC(=O)c3ccc([N+](=O)[O-])s3)c3cnn(-c4ccc(OC(F)(F)F)cc4)c3n2)cc1 [Compound 6-86, N-(6-(4-(tert-butyl)phenyl)-1-(4-(trifluoromethoxy)phenyl)-1H-pyrazolo[3,4-d]pyrimidin-4-yl)-5-nitrothiophene-2-carboxamide] showed an LC50 of 3.46 µM. In the case of O=C(Nc1nc(-c2ccsc2)nc2c1cnn2-c1ccc(F)cc1)c1ccc([N+](=O)[O-])s1 [Compound 6-107], the LC50 is reported as 0.37 µM. CCOCCOCCOc1ccc(-c2nc(NC(=O)c3ccc([N+](=O)[O-])s3)c3cnn(-c4ccc(C(F)(F)F)cc4)c3n2)cn1 [Compound 6-56, N-(6(6-(2-(2-ethoxyethoxy)ethoxy)pyridin-3-yl)-1-(4-(trifluoromethyl)phenyl)-1H-pyrazolo[3,4-d]pyrimidin-4-yl)-5-nitrothiophene-2-carboxamide] showed an LC50 of 0.2 µM. COCCOc1ccc(-c2nc(NC(=O)c3ccc([N+](=O)[O-])s3)c3cnn(-c4cccc(F)c4)c3n2)cn1 [Compound 6-94, N-(1-(3-fluorophenyl)-6-(6-(2-methoxyethoxy)pyridin-3-yl)-1H-pyrazolo[3,4-d]pyrimidin-4-yl)-5-nitrothiophene-2-carboxamide] gave an LC50 of 0.28 µM. CCOCCOCCOc1nc(NC(=O)c2ccc([N+](=O)[O-])s2)c2cnn(-c3ccc(C(C)(C)C)cc3)c2n1 [Compound 6-61] showed an LC50 of 0.54 µM.

Same assay, conditions: Homo sapiens, 48 h, Table 8, MTS, 2 days drug incubation, 50% reduction vs time zero, read-out: Hep3B LC50
O=C(Nc1nc(-c2ccc(F)nc2)nc2c1cnn2C1CCCC1)c1ccc([N+](=O)[O-])s1 [Compound 8-8, N-(1-cyclopentyl-6-(6-fluoropyridin-3-yl)-1H-pyrazolo[3,4-d]pyrimidin-4-yl)-5-nitrothiophene-2-carboxamide] gave an LC50 of 1.17 µM.

Same assay, conditions: Homo sapiens, 48 h, Table 9, MTS, 2 days drug incubation, 50% reduction vs time zero, read-out: Hep3B LC50
CC(C)(C)OC(=O)N1CCC(n2ncc3c(NC(=O)c4ccc([N+](=O)[O-])s4)nc(-c4ccc(F)nc4)nc32)CC1 [Compound 9-4, tert-butyl 4-(6-(6-fluoropyridin-3-yl)-4-(5-nitrothiophene-2-carboxamido)-1H-pyrazolo[3,4-d]pyrimidin-1-yl)piperidine-1-carboxylate] gave an LC50 of 0.93 µM. Work on COCCOC(=O)N1CCC(n2ncc3c(NC(=O)c4ccc([N+](=O)[O-])s4)nc(-c4ccc(Cl)cc4)nc32)CC1 [Compound 9-12, 2-methoxyethyl 4-(6-(4-chlorophenyl)4-(5-nitrothiophene-2-carboxamido)-1H-pyrazolo[3,4-d]pyrimidin-1-yl)piperidine-1-carboxylate] yielded an LC50 of 1.86 µM. CCOCCOC(=O)N1CCC(n2ncc3c(NC(=O)c4ccc([N+](=O)[O-])s4)nc(-c4ccc(Cl)cc4)nc32)CC1 [Compound 9-13, 2-ethoxyethyl 4-(6-(4-chlorophenyl)-4-(5-nitrothiophene-2-carboxamido)-1H-pyrazolo [3,4-d]pyrimidin-1-yl)piperidine-1-carboxylate] gave an LC50 of 1.62 µM.

Same assay, conditions: Homo sapiens, 48 h, Table 10, MTS, 2 days drug incubation, 50% reduction vs time zero, read-out: Hep3B LC50
O=C(Nc1nc(-c2ccc(Cl)cc2F)nc2c1cnn2C1CCCCC1)c1ccc([N+](=O)[O-])s1 [Compound 10-45, N-(6-(4-chloro-2-fluorophenyl)-1-cyclohexyl-1H-pyrazolo[3,4-d]pyrimidin-4-yl)-5-nitrothiophene-2-carboxamide] showed an LC50 of 0.87 µM. In the case of O=C(Nc1nc(-c2cc(F)cc(F)c2)nc2c1cnn2C1CCCCC1)c1ccc([N+](=O)[O-])s1 [Compound 10-41], the LC50 is reported as 0.79 µM. Compound N#Cc1ccc(-c2nc(NC(=O)c3ccc([N+](=O)[O-])s3)c3cnn(C4CCCCC4)c3n2)cc1 [Compound 10-20, N-(6-(4-cyanophenyl)-1-cyclohexyl-1H-pyrazolo[3,4-d]pyrimidin-4-yl)-5-nitrothiophene-2-carboxamide] has an LC50 of 1.2 µM. Compound O=C(Nc1nc(-c2cccs2)nc2c1cnn2C1CCCCC1)c1ccc([N+](=O)[O-])s1 [Compound 10-5, N-(1-cyclohexyl-6-(thiophen-2-yl)-1H-pyrazolo[3,4-d]pyrimidin-4-yl)-5-nitrothiophene-2-carboxamide] has an LC50 of 0.75 µM.
